What all share (type): ADME
Data set [1] can be described thus: Kinetic constant for the germline antibody.
Data set [2] is described as follows: Kinetic constant for the Val91Tyr (39-A11).
Data set [3] can be described thus: Kinetic constant for the SerL91Val (germline).
Data set [4] is described as follows: Kinetic constant for the 39-A11 antibody.

`CC(=O)Nc1ccc(N2C(=O)C=CC2=O)cc1`: the Km in data set [1] was 450 µM; in data set [2], 420 µM; in data set [3], 740 µM; in data set [4] it was 740 µM.

For `C=C/C=C/NC(=O)OCC(=O)O`, the Km was determined as 1400 µM in data set [1], 2100 µM in data set [2], 1200 µM in data set [3] and 1200 µM in data set [4].

These data come from ChEMBL document CHEMBL1131759, “A mutational study of a Diels-Alderase catalytic antibody” (Bioorg Med Chem Lett, 1999).
